Data taken from patent publication US20260365677A1, “NEW CONTRAST AGENTS FOR USE IN DIAGNOSTIC IMAGING” (Bayer Aktiengesellschaft, priority 2022, published 2026).

What was measured:
[1] = Relaxivity measurements at 1.41 T in water and human plasma; format: physicochemical; settings: 37 °C, normalized to Gd
Procedure: Relaxivity measurements at 1.41 T were performed using a MiniSpec mq60 spectrometer (Bruker Analytik, Karlsruhe, Germany) operating at a resonance frequency of 60 MHz and a temperature of 37 °C. The T1 relaxation times were determined using the standard inversion recovery (IR) method with a fixed relaxation delay of at least 5×T1. The variable inversion time (TI) was calculated automatically by the standard software of the MiniSpec mq60 (8 steps). The T2 measurements were performed by using a Carr-Purcell-Meiboom-Gill (CPMG) pulse sequence, applying a relaxation delay of at least 5×T1.
Each relaxivity measurement was performed using three different Gd concentrations (3 concentrations between 0.05 and 2 mM). The T1 and T2 relaxation times of the example compounds 1 to 10 were measured in different media for example in water and human plasma. Human plasma preparation: For each experiment fresh blood was taken from a volunteer using 10 mL citrate-tubes (Sarstedt S-Monovette 02.1067.001, 10 mL, Citrate). The 10 mL citrate-tubes were carefully inverted 10 times to mix blood and anticoagulant and centrifuged for 15 min at 1811 g at RT (Eppendorf, Centrifuge 5810R).
The relaxivities ri (where i=1, 2) were calculated based on the measured relaxation rates R, in water and plasma:
where Ri(0) represent the relaxation rate of the respective solvent and CGd the concentration of the compound normalized to the Gadolinium. The Gadolinium concentrations of the investigated solutions were verified by Inductively Coupled Plasma Mass Spectrometry (ICP-MS Agilent 7500a, Waldbronn, Germany).

[2] = system: freshly isolated rat hepatocytes; assay: Uptake into freshly isolated rat hepatocytes; format: cell-based; settings: 100 μmol Gd/L, 10 min, 37 °C, relative to RC1 (Gd-EOB-DTPA)
Procedure: Triplicates were performed for each test item.

[3] = Partition coefficient (log P butanol/buffer); format: physicochemical; settings: 50 mM Tris-HCl, pH 7.4, 10 μM, room temperature
Procedure: The partition coefficient P (log P=log(Cbutanol/Cbuffer)) was determined in buffered aqueous solution (10 μM of compound in 0.5 mL 50 mM Tris-HCl saturated with Butanol, pH 7.4) and 1-butanol 1+1 and the mixture was shaken for 2 h at room temperature (n=3). The Gd-concentrations in each phase. CObutano, and Cbuffer were measured by ICP-MS (The Chemistry of Contrast Agents in Medical Magnetic Resonance Imaging” 2nd Ed. Merbach A S, Helm L, Toth E, eds. Hoboken, NJ: Wiley 2013).

OATP1B3 = target: T1, OATP1B3 (Homo sapiens, UniProt Q9NPD5); assay: Uptake into stable transfected OATP1B3 HEK 293 cells; format: cell-based; settings: 100 μM, 40 min, relative to RC1 (Gd-EOB-DTPA)
T1 construct: expressed in transfected cells
T1 sequence (Q9NPD5 1-702): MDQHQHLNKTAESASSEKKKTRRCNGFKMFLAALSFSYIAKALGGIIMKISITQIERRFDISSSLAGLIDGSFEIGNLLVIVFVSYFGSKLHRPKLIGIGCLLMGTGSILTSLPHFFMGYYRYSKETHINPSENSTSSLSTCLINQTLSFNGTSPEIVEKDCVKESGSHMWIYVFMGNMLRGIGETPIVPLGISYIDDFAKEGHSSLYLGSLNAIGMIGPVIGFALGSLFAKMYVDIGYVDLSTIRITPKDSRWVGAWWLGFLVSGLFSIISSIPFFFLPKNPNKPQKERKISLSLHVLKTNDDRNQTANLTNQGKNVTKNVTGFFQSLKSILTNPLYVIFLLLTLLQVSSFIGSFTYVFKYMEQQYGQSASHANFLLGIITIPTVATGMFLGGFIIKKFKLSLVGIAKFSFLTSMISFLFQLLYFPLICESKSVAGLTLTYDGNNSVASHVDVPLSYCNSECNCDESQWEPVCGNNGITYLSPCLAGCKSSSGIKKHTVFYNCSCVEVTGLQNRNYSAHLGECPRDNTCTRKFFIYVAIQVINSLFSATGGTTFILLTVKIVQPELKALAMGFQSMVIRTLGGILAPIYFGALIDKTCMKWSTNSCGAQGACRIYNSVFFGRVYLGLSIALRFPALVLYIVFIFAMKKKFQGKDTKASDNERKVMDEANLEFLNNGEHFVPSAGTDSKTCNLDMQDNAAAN
Procedure: Human transfected OATP1B3 human embryonic kidney 293 cells (OATP1B3 HEK 293, SLCO1B3, Entrez Gene ID: 28234) were used (Leonhardt M et al. Drug Metab Dispos. 2010 July; 38(7):1024-8). The following culture medium was used: 500 mL DMEM (Dulbecco's Modified Eagle Medium—high Glucose, D6429), 50 mL FCS (fetal bovine serum, Fa. Sigma, F7524), 5.8 mL G418 (Geneticin, Fa. Gibco 10131-027) and 5 mL Pen-Strep. (Penicillin-Streptomycin, Fa. Gibco, Ref 15140-122). Cryopreserved cells were shortly thawed in water bath and diluted in 10 mL warm culture medium (37 °C). After medium change the cells were grown for 3d in a 25 cm^2 cell culture flask. After 3 to 5d the cells were transferred into 75 cm^2 flasks. For the splitting of cells these were incubated with 1.5 mL trypsin (Trypsin-EDTA (1×) 0.05%, Ref 25300-054 100 ml, Fa. Gibco) for 3-5 min in the incubator (37 °C, 5% CO2 and 95% oxygen). After centrifugation and washing with medium the cells were counted (50 μL cell suspension and 50 μL trypan blue (Trypan Blue Solution, 93595-50 ml, Fa. Fluka). Cells were cultured (1×10^5 cells/well) in poly-D-lysine coated 24-well plates (Fa. Corning, Ref: 354414) in 1.5 mL medium per well. After 48 hours in the incubator the medium was changed and 1.5 mL/well sodium butyrate containing medium were added (40 mL culture medium plus 400 μL Na-Butyrate, Fa. Sigma Aldrich B5887-5G, 250 mg in 2.27 mL MilliQ water). After 24 hours in the incubator the medium was vacuumed off and 1.5 mL transport buffer was added and incubated for 10 min. The transport buffer contains the following ingredients: 500 mL HBSS (Hank's balanced salt solution, Hyclone, SH30268.01), 5 mL HEPES buffer (4-(2-hydroxyethyl)-1-piperazine-ethanesulfonic acid, Gibco 15630-056) and 3.9 mL glucose (Sigma, G8270-100, 90 g/200 mL MilliQ water). All test items were prepared in transport buffer at a final concentration of 100 μM from stock solutions (180 to 500 mM concentration). The OATP1B3 HEK 293 cells were incubated with test solutions (test item in transport buffer 500 μL) for 40 min on a thermoshaker without shaking (PHMP, Fa. Grant Bio). Triplicates were performed for each test item. After incubation the cells were washed with 2 mL of cold PBS (+) buffer (Dulbeccos PBS+, Fa. Gibco). […] As a reference standard Gd-EOB-DTPA (gadoxetate) is used in the same well plate. The OATP1B3 HEK 293 uptake of the test compound is calculated relative to gadoxetate (resulting in the unit % of RC1).

| Compound | r1 human plasma [1] [L/mmol/s] | r1 water [1] [L/mmol/s] | Uptake rat hepatocytes [2] | Log P [3] | Uptake into OATP1B3-HEK 293 cells (OATP1B3) |
| --- | --- | --- | --- | --- | --- |
| COCCOCCOCCOc1ccc(C[C@H]2CN(CC(=O)[O-])CCN(CC(=O)[O-])CCN(CC(=O)O)CCN2CC(=O)[O-])cc1.[Gd+3] [Example 1, Gadolinium-2,2′,2″-[(2S)-10-(carboxymethyl)-2-(4-{2-[2-(2-methoxyethoxy)-ethoxy]ethoxy}benzyl)-1,4,7,10-tetraazacyclododecane-1,4,7-triyl]triacetate] | 6.6 | 5.1 | 47 % of RC1 | −2.12 | 79 % of RC1 |
| CCOCCOCCOc1ccc(C[C@H]2CN(CC(=O)[O-])CCN(CC(=O)[O-])CCN(CC(=O)O)CCN2CC(=O)[O-])nc1.[Gd+3] [Example 6, Gadolinium 2,2′,2″-[(2S)-10-(carboxymethyl)-2-({5-[2-(2-ethoxyethoxy)ethoxy]pyridin-2-yl}methyl)-1,4,7,10-tetraazacyclododecane-1,4,7-triyl]triacetate] | 5.9 | 5.3 | 47 % of RC1 | −1.96 | 32 % of RC1 |
| CCOCCOCCOCCOc1ccc(C[C@H]2CN(CC(=O)[O-])CCN(CC(=O)[O-])CCN(CC(=O)O)CCN2CC(=O)[O-])cc1.[Gd+3] [Example 5, Gadolinium-2,2′,2″-[(2S)-10-(carboxymethyl)-2-(4-{2-[2-(2-ethoxyethoxy)ethoxy]ethoxy}benzyl)-1,4,7,10-tetraazacyclododecane-1,4,7-triyl]triacetate] | 5.7 | 5.1 | 57 % of RC1 | −1.74 | 100 % of RC1 |
| CCOCCOc1ccc(C[C@H]2CN(CC(=O)[O-])CCN(CC(=O)[O-])CCN(CC(=O)O)CCN2CC(=O)[O-])cc1.[Gd+3] [Example 4, Gadolinium-2,2′,2″-{(2S)-10-(carboxymethyl)-2-[4-(2-ethoxyethoxy)benzyl]-1,4,7,10-tetraazacyclododecane-1,4,7-triyl}triacetate] | 6.6 | 4.8 | 67 % of RC1 | −1.57 | 103 % of RC1 |
| CCOCCOCCOc1ccc(C[C@H]2CN(CC(=O)[O-])CCN(CC(=O)[O-])CCN(CC(=O)O)CCN2CC(=O)[O-])cc1.[Gd+3] [Example 2, Gadolinium-2,2′,2″-[(2S)-10-(carboxymethyl)-2-{4-[2-(2-ethoxyethoxy)ethoxy]benzyl}-1,4,7,10-tetraazacyclododecane-1,4,7-triyl]triacetate] | 5.9 | 4.9 | 65 % of RC1 | −1.52 | 121 % of RC1 |
| CCCCOc1ccc(C[C@H]2CN(CC(=O)[O-])CCN(CC(=O)[O-])CCN(CC(=O)O)CCN2CC(=O)[O-])cc1.[Gd+3] (single isomer, unassigned; stereoisomer 2) [Example 13] | 9.8 | 5.3 | 137 % of RC1 |  | 383 % of RC1 |
| CCOc1ccc(CC2CN(CC(=O)[O-])CCN(CC(=O)[O-])CCN(CC(=O)O)CCN2CC(=O)[O-])cc1.[Gd+3] (single isomer, unassigned; diastereomer 2) [Example 9, Gadolinium-2,2′,2″-[10-(carboxymethyl)-2-(4-ethoxybenzyl)-1,4,7,10-tetraazacyclododecane-1,4,7-triyl]triacetate (racemic diastereomer 2)] | 5.6 | 4.3 | 42 % of RC1 | −1.36 | 13 % of RC1 |
